Data reported in patent publication EP0465913B1, “Diaminotrifluoromethylpyrimidine derivatives, process for their production and phospholipase A2 inhibitor containing them” (ISHIHARA SANGYO KAISHA, LTD., priority 1990, dated 1992).
Read-outs that look alike come from different tables or passages of the source.

Key:
[1] = test system: increased vascular permeability induced by acetic acid; experiment: Inhibitory activity on increased vascular permeability induced by acetic acid (Mouse Whittle method, method C); assay type: in vivo, ddy male mice; conditions: amount of leaked dye
Protocol: Using ddy male mice, each test group consisted of 4 or 5 mice. A test compound was mixed with Tween 80 [polyoxyethylenesorbitan monooleate (manufactured by Nacalai Tesque K.K.)], and distilled water was added thereto to obtain a 2% Tween 80 suspension, or it was dissolved in the form of a salt in water to obtain an aqueous solution. A test compound was orally administered, and upon expiration of one hour from the administration, 0.7% acetic acid was intraperitonially injected to each mouse in an amount of 0.1 ml/10 g, and at the same time, 2% brilliant blue was intravenously injected into the tail vein in an amount of 0.1 ml/20 g. Thirty minutes after the injection of brilliant blue, the cervical vertebrae were dislocated under anesthesia by chloroform, and the abdorminal cavity was washed with 5 ml of a physiological saline. The washing solution was subjected to centrifugal separation at 3,000 rpm for 10 minutes, and the amount of the dye in the supernatant was measured at 600 nm absorbance by Microplate ELISA Reader (Model 2550EIA Reader, manufactured by Bio-Rad Laboratories). The inhibition rate of the amount of leaked dye in the group in which a test compound was administered relative to the control group was obtained by the following formula. Inhibition rate (%) = (l -(C)/(D)) x 100 [formula] • C: Amount of leaked dye in the group to which a test compound was administered. • D: Amount of leaked dye in the control group.

[2] = target: T1, Porcine pancreatic phospholipase A2 (Sus scrofa, UniProt P00592); experiment: Phospholipase A2 inhibitory activity, method A (egg yolk lecithin substrate); assay type: biochemical; conditions: 1,000 ppm, 37°C for 30 minutes, read-out: % inhibition of PLA2 (1,000 ppm)
T1 construct: purchased Boehringer Mannheim·Yamanouchi K.K. 161454·122416
Protocol: To 10 mg of egg yolk lecithin (manufactured by Wako Pure Chemical Industries Ltd.), 1 ml of glycerine, 2 ml of a 50 mM Tris-HCl buffer solution (pH7.5) [Tris(hydroxymethyl)aminomethane (manufactured by Nacalai Tesque K.K.) was adjusted to pH7.5 with hydrochloric acid], 0.5 ml of a 150 mM calcium chloride solution (calcium chloride was dissolved in a 50 mM Tris-HCl buffer solution) and 0.5 ml of a 0.05% Triton-X100 (manufactured by Nacalai Tesque K.K.) solution (Triton-X100 was dissolved in a 50 mM Tris-HCl buffer solution), were added and dispersed by an agate mortar or dispersed by an ultrasonic processor (Model W-225, manufactured by Heat System-Ultrasonics, Inc.) for 5 minutes (30W) to obtain a substrate.
(§1) Porcine pancreatic phospholipase A2 [(161454·122416) manufactured by Boehringer Mannheim·Yamanouchi K.K.] was used.
To a 96 well microtitration plate (flat bottom, manufactured by Sumitomo Bakelite Medical Co., Ltd.), 40 µl of the substrate, 5 µl of a solution prepared by dissolving 10 mg of a test compound in 500 µl of dimethylsulfoxide, followed by an addition of 500 µl of a 50 mM Tris-HCl buffer solution, and 5 µl of an enzyme solution of 20 ng/ml (prepared by diluting the enzyme in a 50 mM Tris-HCl buffer solution), were added and reacted at 37°C for 30 minutes. After termination of the reaction, the released free fatty acid was quantitatively analyzed in accordance with the ACS-ACOD (acyl CoA synthetase-acyl CoA oxidase) method [a kit of NEFA C test wako (manufactured by Wako Pure Chemical Industries, Ltd.) was used]. The quantitative analysis was made by means of Microplate ELISA Reader (Model 2550EIA Reader, manufactured by Bio-Rad Laboratories) at a wavelength of 540 nm. Separately, such experiments as mentioned above, were carried out at various concentrations (2 µg/ml, 1 µg/ml and 0.5 µg/ml) of phospholipase A2 without a test compound. Then, the concentration of the free fatty acid versus the concentration of phospholipase A2 was plotted.
(§2) From this standard curve, the apparent concentration of phospholipase A2 in the case with a test compound, was read. Then, the percent inhibition of the enzyme was calculated by the following formula. Percent inhibition (%) = (l -(A)/(B)) x 100 [formula] • A: Apparent enzyme concentration when a test compound is added. • B: True enzyme concentration when a test compound is added.

carrageenin edema = experiment: Inhibitory activity on carrageenin edema; assay type: in vivo, Wistar male rats; conditions: rat, paw swelling volume three hours after carrageenin; for Inhibition rate (%): dose 50 mg/kg orally
Protocol: Using Wistar male rats (body weight: about 100 g), each test group consisted of 5 rats. A test compound was mixed with Tween 80 [polyoxyethylenesorbitan monooleate (manufactured by Nacalai Tesque K.K.)], and distilled water was added thereto to obtain a 2% Tween 80 suspension, or it was dissolved in the form of a salt in water to obtain an aqueous solution. Either the suspension or the aqueous solution was orally administered in an amount of 200 mg/kg, 100 mg/kg, 50 mg/kg or 25 mg/kg. One hour later, 0.1 ml of a 1% λ-carrageenin solution dissolved in a physiological saline was injected subcutaneously to the right hind paw of each rat to cause inflamation. Three hours later, the paw volume was measured by a paw volume measuring device (manufactured by Ugobasiee K.K.). A swelling volume was obtained from the difference from the value before the inflammation. Inhibition rate (%) = (l -(F)/(E)) x 100 [formula] • F: Average swelling volume in the group to which a test compound was administered. • E: Average swelling volume in the control group.

[3] = target: T1, Porcine pancreatic phospholipase A2; experiment: Phospholipase A2 inhibitory activity, method B (L-α-dipalmitoylphosphatidylcholine substrate); assay type: biochemical; conditions: 1,000 ppm, 37°C for 30 minutes, read-out: % inhibition of PLA2 (1,000 ppm)
Protocol: To a solution prepared by dissolving 9.2 mg of L-α-dipalmitoylphosphatidylcholine (manufactured by Nichiyu Liposome K.K.) in 0.5 ml of chloroform, a solution prepared by dissolving 32 mg of sodium cholate (manufactured by Wako Pure Chemical Industries, Ltd.) in 0.5 ml of methanol, was added, followed by mixing. The solvent of the mixture was removed under a nitrogen stream, and then 2.5 ml of a 250 mM sodium chloride solution [prepared by dissolving sodium chloride in a 100 mM Tris-HCl buffer solution {tris(hydroxymethyl)aminomethane (manufactured by Nacalai Tesque K.K.) was adjusted to pH8.0 with hydrochloric acid}] was added thereto, and the mixture was dissolved under stirring to obtain a substrate.
as §1
To a 96 well microtitration plate, 20 µl of a solution containing calcium chloride, bovine serum alubmin (manufactured by Sigma Chemical, Co.) and a Tris-HCl buffer solution (pH8.0) at concentrations of 25 mM, 4.5 mg/ml and 100 mM, respectively, 5 µl of a solution prepared by dissolving 10 mg of a test compound in 500 µl of diemthylsulfoxide, followed by an addition of 500 µl of a 200 mM Tris-HCl buffer solution, 5 µl of an enzyme solution (10 µg/ml) [prepared by dissolving the enzyme in a bovine serum alubmin solution (prepared by dissolving bovine serum alubmin in a 100 mM Tris-HCl buffer solution at a concentration of 1 mg/ml)] and 20 µl of the substrate, were added and reacted at 37°C for 30 minutes. After termination of the reaction, the released free fatty acid was quantitatively analyzed in accordance with the ACS-ACOD (acyl CoA synthetase-acyl CoA oxidase) method [a kit of NEFA C test wako (manufactured by Wako Pure Chemical Industries, Ltd.) was used]. The quantitative analysis was made by means of Microplate ELISA Reader (Model 2550EIA Reader, manufactured by Bio-Rad Laboratories) at a wavelength of 540 nm. Separately, such experiments as mentioned above, were carried out at various concentrations (1 µg/ml, 0.75 µg/ml, 0.5 µg/ml and 0.25 µg/ml) of phospholipase A2 without a test compound. Then, the concentration of the free fatty acid versus the concentration of phospholipase A2 was plotted.
as §2

[4] = Acute toxicity, intravenous injection (LD50); assay type: in vivo; conditions: mouse, in vivo, ddy male mice, sodium salt, mortality over one week
Protocol: Administration route: Intravenous injection
Using ddy male mice (body weight: 25 - 30 g), each test group consisted of 5 mice. A test compound was dissolved in the form of a sodium salt in a physiological saline or in a 5% glucose aqueous solution, and intravenously injected in an amount of 0.1 ml/10 g body weight. After the injection, the mortality rate was obtained over one week, and the median lethal dose LD50 (mg/kg) was determined.

[5] = test system: experimental acute pancreatitis model; experiment: Effects against acute pancreatitis (Test Example 8, closed duodenal loop method, lesion scores); assay type: in vivo, Crj-CD male rats; conditions: sodium salt, 6 hours after ventrotomy; for inhibition in vivo at 10 mg/kg: Rattus norvegicus, 10 mg/kg single intravenous injection
Protocol: Using Crj-CD male rats, each test group consisted of 3 rats. An experimental acute pancreatitis model was prepared by a closed duodenal loop method under anethesia with halothane (manufactured by Hoechst Japan) and nitrous oxide (manufactured by Sumitomo Seika K.K.) applied by a general inhalation anesthesia machine (Model EM2 and halothane evaporator F-Model). Each compound (subjected to the test in the form of a sodium salt) was continuously intravenously injected into the tail vein in an amount of 0.4 ml/100 g to 0.6 ml/100 g at a rate of 0.05 ml per minute by a pump (Technicon AA II Proportioning Pump III, manufactured by Technicon Instruments Corporation) or rapidly intravenously injected. No injection was made to a control group. Gross pathological examination was conducted upon expiration of 6 hours after the ventrotomy in the case of the group to which the compound was administered. With respect to each of four lesions among pancreatic lesions i.e. petechia, ecchymosis, pancreatic necrosis and abdominal fatty necrosis, the grade and the distribution of lesions were scored with five grades of 0, 0.5, 1, 2 and 3 (severe lesions are 3). The sum of all lesions was designated as scores of pancreatitis lesions, and the sum of the score of petechia and the score of ecchymosis only was designated as scores of hemorrhagic lesions. The pancreatitis inhibition rate (%) and the hemorrhage inhibition rate (%) were obtained by the following formulas, and the results are shown in Table 13. Pancreatitis inhibition rate (%) = (l -(H)/(G)) x 100 [formula] • H: Scores of pancreatitis lesions of the group to which a test compound was administered. • G: Scores of pancreatitis lesions of the control group. Hemorrhage inhibition rate (%) = (l -(J)/(I)) x 100 [formula] • J: Scores of hemorrhagic lesions of the group to which a test compound was administered. • I: Scores of hemorrhagic lesions of the control group.

[6] = read-out: Inhibition rate of hemorrhagic lesions (%)
[7] = read-out: Inhibition rate of pancreatitis lesions (%)

T1 sequence (P00592 23-146): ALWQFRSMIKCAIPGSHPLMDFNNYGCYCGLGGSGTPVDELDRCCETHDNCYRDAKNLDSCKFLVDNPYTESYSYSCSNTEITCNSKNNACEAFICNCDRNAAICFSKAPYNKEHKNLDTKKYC

| inhibition at 1000 ppm [2] [%] | SMILES | inhibition at 1000 ppm [3] [%] | LD50 at 168 h ([4]; iv) [mg/kg] | inhibition in vivo at 10 mg/kg [5, 6] [%] | inhibition in vivo at 10 mg/kg [5, 7] [%] | Inhibition rate (%) (carrageenin edema) | other results |
| --- | --- | --- | --- | --- | --- | --- | --- |
| 74 | CCCCCCCCC(=O)Nc1cc(C(F)(F)F)cnc1NS(C)(=O)=O [Compound No. 4] |  |  |  |  |  | Inhibition rate (%) ([1]; dose 50 mg/kg orally): 43% |
| 39 | CCCCCCCCCCCC(=O)Nc1cc(C(F)(F)F)cnc1NS(C)(=O)=O [compound 5] |  |  |  |  |  | Inhibition rate (%) ([1]; dose 50 mg/kg orally): 53%; inhibition in vivo at 100 mg/kg (carrageenin edema; po, 3 h, dose 100 mg/kg orally, read-out: Inhibition rate (%)): 37% |
|  | CC(C)(C)CC(=O)Nc1cc(C(F)(F)F)cnc1NS(C)(=O)=O [compound 7] | 50 |  |  |  |  | Inhibition rate (%) ([1]; dose 20 mg/kg orally): 53% |
| 74 | CCS(=O)(=O)Nc1ncc(C(F)(F)F)cc1NC(=O)C(F)(F)Cl [compound 20] |  |  |  |  |  | Inhibition rate (%) ([1]; dose 20 mg/kg orally): 48% |
| 89 | CNc1ncc(C(F)(F)F)cc1NC(=O)C(F)(F)C(F)(F)F [compound 41] |  |  |  |  |  | Inhibition rate (%) ([1]; dose 100 mg/kg orally): 85% |
|  | CS(=O)(=O)Nc1ncc(C(F)(F)F)cc1NC(=O)Cc1ccccc1 [compound 60] | 41 | > 60 | 92 | 94 | 27 |  |
|  | CS(=O)(=O)Nc1ncc(C(F)(F)F)cc1NC(=O)Cc1cccs1 [compound 61] | 36 | > 80 | 79 | 64 |  |  |
|  | CS(=O)(=O)Nc1ncc(C(F)(F)F)cc1NC(=O)C1CC=CCC1 (centres unmarked) [compound 68] | 81 | > 80 | 74 | 77 |  |  |
|  | CC=CC=CC(=O)Nc1cc(C(F)(F)F)cnc1NS(C)(=O)=O [compound 73] | 53 | > 80 | 74 | 79 | 20 |  |
|  | CS(=O)(=O)Nc1ncc(C(F)(F)F)cc1NC(=O)c1ccc(F)c(F)c1 [compound 77] | 61 | > 80 | 66 | 70 | 22 |  |
|  | O=C(Nc1cc(C(F)(F)F)cnc1NS(=O)(=O)C(F)(F)F)C1CCCCC1 [compound 91] | 81 | > 80 |  |  | 23 |  |
|  | CCCOC(=O)Nc1cc(C(F)(F)F)cnc1NS(=O)(=O)C(C)C [compound 106] | 78 |  | 96 | 97 | 19 | LD50 at 168 h [4]: > 20 mg/kg |

| SMILES | inhibition at 1000 ppm [2] [%] | inhibition at 1000 ppm [3] [%] | LD50 at 168 h ([4]; iv) [mg/kg] | inhibition in vivo at 10 mg/kg [5, 6] [%] | inhibition in vivo at 10 mg/kg [5, 7] [%] | Inhibition rate (%) (carrageenin edema) | other results |
| --- | --- | --- | --- | --- | --- | --- | --- |
| CS(=O)(=O)Nc1ncc(C(F)(F)F)cc1NC(=O)C(F)(F)F [compound 12] | 89 |  | > 150 |  |  |  |  |
| CCOC(=O)NC(=S)Nc1cc(C(F)(F)F)cnc1NS(=O)(=O)CC [compound 21] | 62 |  |  |  |  |  | Inhibition rate of hemorrhagic lesions (%) ([5]; 27 mg/kg continuous intravenous injection): 57%; LD50 at 168 h [4]: > 75 mg/kg |
| O=C(Nc1cc(C(F)(F)F)cnc1NS(=O)(=O)c1ccccc1)C(F)(F)F [compound 24] | 66 |  | > 150 |  |  |  | Inhibition rate of hemorrhagic lesions (%) ([5]; 11 mg/kg continuous intravenous injection): 68% |
